# Source: the Bradley open melting point set (2014)
# Several values for one entry are separate records, joined by “and”; a condition that tells them apart may be missing. Identical values can stand only once.
row,melting point,SMILES
1,116 °C,N#CCc1ccc([N+](=O)[O-])cc1 [4-nitrophenylacetonitrile]
2,114 °C,COc1cc(CO)ccc1O [4-hydroxy-3-methoxybenzyl alcohol]
3,228 °C,CCCC1C(=O)N2C(N(C)C)=Nc3ccc(C)cc3N2C1=O (stereo not drawn) [apazone]
4,62 °C,CCOc1ccc(C#N)cc1 [4-ethoxybenzonitrile]
5,183 °C (2×) and 180 °C,CC1=C(/C=C/C(C)=C/C=C/C(C)=C/C=C/C=C(C)/C=C/C=C(C)/C=C/C2=C(C)CCCC2(C)C)C(C)(C)CCC1 [B-carotene]
6,-57 °C,"CCCCCCCCN(C)C [N,N-dimethyl-n-octylamine]"
7,152 °C,O=C(O)Cc1ccc(O)cc1 [4-hydroxyphenylacetic acid]
8,171 °C,NNC(=O)c1ccncc1 [isoniazid]
9,120 °C,N#Cc1ccc(N=C=S)cc1 [4-cyanophenyl isothiocyanate]
10,12 °C,NC(c1ccccc1)c1ccccc1 [benzhydrylamine]
11,188 °C,Nc1ccc(C(=O)O)cc1 [4-Aminobenzoic Acid]
12,62 °C,O=[N+]([O-])c1cccc(-c2ccccc2)c1 [3-nitrobiphenyl]
13,164 °C,"N#CCc1nn(-c2ccccc2)c(N)c1C#N [5-amino-4-cyano-3-cyanomethyl-1-phenyl-1h-pyrazole,]"
14,98 °C,O=C(Nc1ccccc1/C=C/c1ccccc1)c1ccccc1 [N-{2-[(E)-2-phenylethenyl]phenyl}benzamide]
15,110 °C,N#CC(c1ccccc1[N+](=O)[O-])c1ccccc1[N+](=O)[O-] [bis(2-nitrophenyl)acetonitrile]
16,110 °C,"Cn1c(Cl)cc(=O)n(C)c1=O [6-chloro-1,3-dimethyluracil]"
17,-188 °C,CCC [propane]
18,145 °C,"COc1cc(C(=O)c2ccc(-c3ccccc3)cc2)c([N+](=O)[O-])cc1OC [biphenyl-4-yl(4,5-dimethoxy-2-nitrophenyl)methanone]"
19,54 °C,CCOC(=O)c1ccc(C#N)cc1 [ethyl_p-cyanobenzoate]
20,125 °C,O=S(=O)(Nc1ccccc1Cl)c1ccccc1 [2-chloro-1-phenylsulfonamidobenzene]
21,133 °C,O=C(O)/C=C/c1ccccc1 [cinnamic acid]
22,63.4 °C and 65.5 °C,"Cc1cc(C)cc(O)c1 [3,5-dimethylphenol]"
23,124 °C,CCOC(=O)c1cc(-c2ccccc2)n(-c2ccc(Cl)cc2Cl)n1
24,191 °C,O=C(O)c1c(P(c2ccccc2)c2ccccc2)ccc2ccccc12 [2-diphenylphosphino-1-naphthoic acid]
25,89 °C,Cc1cc2ccccc2[n+]([O-])c1 [3-methylquinoline n-oxide]
26,234 °C,CCc1nc(N)nc(N)c1-c1ccc(Cl)cc1 [Pyrimethamine]

row,melting point,SMILES
1,209 °C,CCCSc1ccc2[nH]c(NC(=O)OC)nc2c1 [albendazole]
2,210 °C,CSc1ccc(B(O)O)cc1 [4-(methylthio)benzeneboronic acid]
3,104 °C,COc1ccc2c(c1)CC1(CCC(O)(c3ccc(C(C)(C)C)cc3)CC1)C2O (stereo not drawn)
4,186 °C,Nc1ncnc2c1ncn2[C@@H]1O[C@H](COP(=O)(O)O)[C@@H](O)[C@H]1O [Adenosine monophosphate]
5,92 °C,C=CCOc1ccc(CC(=O)O)cc1Cl [Alclofenac]
6,75 °C,CN(C)c1ccc(C=O)cc1 [4-(Dimethylamino)benzaldehyd]
7,95 °C,O=Cc1cc2c(cc1[N+](=O)[O-])OCO2 [6-nitropiperonal]
8,151 °C,"NNC(=O)COc1ccc(Cl)cc1Cl [2,4-dichlorophenoxyacetic acid hydrazide]"
9,109 °C,CN(C)CCOc1ccc(/C(=C(/CCCl)c2ccccc2)c2ccccc2)cc1 [Toremifene]
10,146 °C,"COc1ccccc1-c1ccc(C=C(C(C)=O)C(C)=O)o1 [3-{[5-(2-Methoxyphenyl)-2-furyl]methylene}pentane-2,4-dione]"
11,207 °C,"COc1cc(CC(=O)O)c([N+](=O)[O-])cc1OC [4,5-dimethoxy-2-nitrophenylacetic acid]"
12,199 °C,"NC(=O)c1c(Cl)cccc1Cl [2,6-dichlorobenzamide]"
13,99 °C,"O=Cc1cc(O)ccc1O [2,5-dihydroxybenzaldehyde]"
14,236 °C,O=S(=O)([O-])CCN1CC[NH+](CCO)CC1 [2-[4-(2-Hydroxyethyl)piperazin-4-ium-1-yl]ethanesulfonate]
15,46.3 °C,"COc1cc(C=O)cc(OC)c1 [3,5-dimethoxybenzaldehyde]"
16,270 °C,"c1ccc2c(c1)ccc1cc3c(ccc4ccccc43)cc12 [dibenz[a,h]anthracene]"
17,165 °C,"CN(C)c1ccc([N+](=O)[O-])cc1 [N,N-dimethyl-4-nitroaniline]"
18,8 °C,CC(=O)c1cccc(Br)c1 [3'-bromoacetophenone]
19,104 °C,Cc1ccc(S(=O)(=O)O)cc1 [p-toluenesulfonic acid]
20,-43 °C,"C=C[Si]1(C)O[Si](C)(C=C)O[Si](C)(C=C)O[Si](C)(C=C)O1 (stereo not drawn) [2,4,6,8-tetramethyl-2,4,6,8-tetravinylcyclotetrasiloxane]"
21,47 °C,CCc1ccc(O)cc1 [4-ethylphenol]
22,132 °C,CC(CC1CC(=O)c2c3c(c4ccccc4c2O1)OC1CC(=O)OC31)O[Si](C)(C)C(C)(C)C (stereo not drawn)
23,-63 °C,O=C(OC(=O)C(F)(F)F)C(F)(F)F [Trifluoroacetic anhydride]
24,71 °C,N#Cc1ccc(F)cc1[N+](=O)[O-] [4-fluoro-2-nitrobenzonitrile]
25,27 °C,Cc1ccc(N)cc1Br [3-bromo-4-methylaniline]
26,17 °C,"O=C(Cl)c1c(Cl)cccc1Cl [2,6-dichlorobenzoyl chloride]"

row,melting point,SMILES
1,104 °C,O=[N+]([O-])c1ccc(N2CCCCC2)cc1 [1-(4-nitrophenyl)piperidine]
2,158 °C,"Nc1ccc(-c2ccc(N)cc2N)c(N)c1 [biphenyl-2,2',4,4'-tetramine]"
3,84 °C,CCCCCCCCCc1ccc(B(O)O)cc1 [4-n-nonylbenzeneboronic acid]
4,110 °C,"Cc1cc(Cl)nc(Cl)c1C#N [2,6-dichloro-3-cyano-4-methylpyridine]"
5,64 °C,Nc1ccc(Br)c(Cl)c1 [4-bromo-3-chloroaniline]
6,0 °C,"CC(Cc1ccccc1)c1ccccc1 (stereo not drawn) [1,2-diphenylpropane]"
7,-71 °C,CCc1ccc(C)nc1 [5-ethyl-2-methylpyridine]
8,-38 °C,c1ccsc1 [Thiophene]
9,16 °C,"C[C@@H](O)[C@@H](C)O [(2R,3R)-Butane-2,3-diol]"
10,176 °C and 178 °C,C[C@]12CC[C@@H]3c4ccc(O)cc4CC[C@H]3[C@@H]1CC[C@@H]2O [estradiol]
11,120 °C,OC(CCN1CCCCC1)(c1ccccc1)c1ccccc1 [pridinol]
12,14 °C,CCCCCCCCNCCCCCCCC [di-n-octylamine]
13,23 °C,C/C=C/c1ccc(OC)cc1 [trans-anethole]
14,53 °C,Brc1ccc2ncsc2c1 [6-bromobenzothiazole]
15,154 °C,"O=Cc1ccc(O)c(O)c1 [3,4-Dihydroxybenzaldehyde]"
16,220 °C,OB(O)c1ccc(C2CCCCC2)cc1 [4-cyclohexylbenzeneboronic acid]
17,-5 °C,CCCCCCCCCCCCC [tridecane]
18,-26 °C,CCCCCCCCCCC [N-undecane]
19,226 °C,N#Cc1ccc(C#N)cc1 [Terephthalonitrile]
20,73 °C,"OCCCCCCCCCCO [1,10-decanediol]"
21,-99 °C,C=CCI [allyl iodide]
22,-50 °C,C=C(C)C(=O)OCCCC [Butyl methacrylate]
23,3 °C,CCCCCCCCC(C)=O [2-decanone]
24,114 °C,CC[C@H]1OC(=O)[C@H](C)[C@@H](O[C@H]2C[C@@](C)(OC)[C@@H](O)[C@H](C)O2)C(C)[C@@H](O[C@@H]2O[C@H](C)C[C@H](N(C)C)[C@H]2O)[C@](C)(O)C[C@@H](C)CN(C)[C@H](C)[C@@H](O)[C@]1(C)O (stereo partly drawn) [Azithromycin]
25,270 °C,Cn1c(=O)c2[nH]cnc2n(C)c1=O [theophylline]

row,SMILES,melting point
1,Nc1ccccc1 [Aniline],-6 °C
2,"COc1ccc(/C=C/[N+](=O)[O-])cc1OC [3,4-dimethoxy-beta-nitrostyrene]",140 °C
3,O=[N+]([O-])c1ccc(Cl)cc1 [4-Chloronitrobenzene],83.5 °C
4,NC(Cc1ccc(N(CCCl)CCCl)cc1)C(=O)O (stereo not drawn) [Melphalan],182 °C
5,"O=[N+]([O-])c1ccc(Oc2ccc(Cl)cc2Cl)cc1 [2,4-Dichloro-1-(4-nitrophenoxy)benzene]",70.5 °C
6,"Nc1ccc(Cl)cc1Cl [2,4-dichloroaniline]",61 °C
7,COc1ccc(N)cc1 [p-anisidine],59 °C
8,CCCN(CC1CC1)c1c([N+](=O)[O-])cc(C(F)(F)F)cc1[N+](=O)[O-] [profluralin],32.5 °C
9,CCCCCCCc1ccc(O)cc1 [4-n-heptylphenol],27 °C
10,O=Cc1ccccc1 [benzaldehyde],-56.5 °C and -55.6 °C
11,"BrCCCBr [1,3-Dibromopropane]",-34 °C
12,O=[N+]([O-])c1cc[n+]([O-])c2ccccc12 [4-Nitroquinoline 1-oxide],154 °C
13,O=C(Cl)OCc1ccccc1 [benzyl chloroformate],-20 °C
14,"Nc1c(Cl)cccc1Cl [2,6-dichloroaniline]",40 °C
15,Nc1ccccc1[N+](=O)[O-] [2-nitroaniline],72 °C
16,Cc1ncc2n1-c1ccc(Cl)cc1C(c1ccccc1F)=NC2 [Midazolam],159 °C
17,C=CC1CC=CCC1 (stereo not drawn) [4-Vinylcyclohexene],-101 °C
18,O=[N+]([O-])c1ccccc1O [2-Nitrophenol],44 °C
19,"Oc1c(I)cc(I)cc1I [2,4,6-triiodophenol]",158 °C
20,Oc1c(F)c(F)c(F)c(F)c1F [Pentafluorophenol],35 °C
21,"O=C(O)c1cc([N+](=O)[O-])cc([N+](=O)[O-])c1 [3,5-dinitrobenzoic acid]",206 °C
